From patent publication US20170050957A1, “4-AMINO-6-(HETEROCYCLIC)PICOLINATES AND 6-AMINO-2-(HETEROCYCLIC)PYRIMIDINE-4-CARBOXYLATES AND THEIR USE AS HERBICIDES” (Dow AgroSciences LLC, priority 2013, published 2017)

Columns and labels:
Test in all cases: Pre-emergent Test I herbicidal activity
Assay type in all cases: in vivo
[1] = test system: sunflower (Helianthus annuus)
Method: (§1) Pre-emergent Test I Seeds of test species were planted into round plastic pots (5-inch diameter) containing sandy loam soil. After planting, all pots were sub-irrigated 16 h prior to compound application. Compounds were dissolved in a 97:3 v/v (volume/volume) mixture of acetone and dimethyl sulfoxide (DMSO) and diluted to the appropriate concentration in a final application solution containing water, acetone, isopropanol, DMSO and Agri-dex (crop oil concentrate) in a 59:23:15:1.0:1.5 v/v ratio and 0.02% w/v (weight/volume) of Triton X-155 to obtain the spray solution containing the highest application rate. The high application rate was serial diluted with the above application solution to provide delivery of the compound at rates 1/2×, 1/4× and 1/8× of the highest rate (equivalent to 4.0, 2.0, 1.0, and 0.5 kg/ha, respectively). Formulated compound (2.7 mL) was applied pipetted evenly over the soil surface followed by incorporation with water (15 mL). Following treatment, pots were returned to the greenhouse for the duration of the experiment. The greenhouse was programmed for an approximate 15 h photoperiod which was maintained at about 23-29° C. during the day and 22-28° C. during the night. Nutrients and water were added on a regular basis through surface irrigation and supplemental lighting was provided with overhead metal halide 1000-Watt lamps as necessary. Herbicidal effect ratings were obtained 14 days after treatment. All evaluations were made relative to appropriate controls on a scale of 0 to 100 where 0 represents no herbicidal effect and 100 represents plant death or lack of emergence from the soil.

[2] = test system: barnyardgrass (Echinochloa crs-galli)
Method: as §1

wild oats (Avena fatua) = test system: wild oats (Avena fatua)
Method: as §1

[3] = test system: ivyleaf morningglory (Ipomoea hederecea)
Method: as §1

[4] = test system: giant foxtail (Setaria faberi)
Method: as §1

Structure (SMILES) | Visual Growth Reduction (%) 14 Days After Application HELAN ([1]; 3.96 Kg ai/ha) | Visual Growth Reduction (%) 14 Days After Application, ECHCG ([2]; 3.96 Kg ai/ha) | Visual Growth Reduction (%) 14 Days After Application AVEFA (wild oats (Avena fatua); 3.96 Kg ai/ha) | Visual Growth Reduction (%) 14 Days After Application IPOHE ([3]; 3.96 Kg ai/ha) | Visual Growth Reduction (%) 14 Days After Application, SETFA ([4]; 3.96 Kg ai/ha) | Visual Growth Reduction (%) 14 Days After Application HELAN ([1]; 4 Kg ai/ha) | Visual Growth Reduction (%) 14 Days After Application, ECHCG ([2]; 4 Kg ai/ha) | Visual Growth Reduction (%) 14 Days After Application AVEFA (wild oats (Avena fatua); 4 Kg ai/ha) | Visual Growth Reduction (%) 14 Days After Application IPOHE ([3]; 4 Kg ai/ha) | Visual Growth Reduction (%) 14 Days After Application, SETFA ([4]; 4 Kg ai/ha)
COC(=O)c1nc(-c2ccc3ccn(C)c3c2)c(F)c(N)c1Cl [Compound 1.10] | G (0-29) | F (30-44) | G (0-29) | G (0-29) | G (0-29) | – | – | – | – | –
Nc1c(F)c(-c2cccc3cc[nH]c23)nc(C(=O)O)c1Cl [Compound 1.48] | – | – | – | – | – | C (75-84) | G (0-29) | G (0-29) | D (60-74) | G (0-29)
COC(=O)c1nc(-c2ccc3sccc3c2)cc(N)c1Cl [Compound 3.05] | – | – | – | – | – | F (30-44) | A (95-100) | F (30-44) | A (95-100) | A (95-100)
